Laboratory results taken from US20030109444A1, “Bone anti-resorptive compounds” (priority 2001, published 2003).
Entries after “also recorded” stand apart in the source; their conditions may differ.

Test system: osteoclast precursors (bone marrow macrophages)
Assay: Osteoclast differentiation of bone marrow macrophage cultures monitored by TRAP activity
Format: cell-based
Settings: cell cultures of osteoclast precursors (mouse BMMs) with M-CSF, increasing concentrations of peptide, FIG. 1
Procedure: The effect of a partial AA″ loop polypeptide of RANKL on TRAP activity. Wild type C3H/HENJ mice were purchased from Harlan Industries (Indianapolis, Ind.). In order to establish a cell culture of osteoclast precursors, bone marrow macrophages (BMMs) were isolated from whole bone marrow of four to six week old mice and incubated in tissue culture dishes at 37° C. in 5% CO2. After 24 hours in culture, the non-adherent cells were collected and layered on a Ficoll Hypaque gradient and the cells at the gradient interface were collected. Cells were replated at 65,000/cm^2 in α-minimal essential medium, supplemented with 10% heat inactivated fetal bovine serum, at 37° C. in 5% CO2 in the presence of recombinant mouse M-CSF (10 ng.ml). The cell cultures were then treated either with the increasing concentrations of polypeptide of SEQ ID NO 1 (subset of AA″ loop) or with a negative control scrambled peptide having the same molecular weight as the test compound. […] This phosphatase is an osteoclast specific enzyme and its activity corresponds with osteoclast differentiation. TRAP activity is measured by quantitating its ability to cleave a substrate in a color-producing reaction.

Sequence: PSGSHKVTLSS [SEQ ID NO 1]
- TRAP activity: decreases TRAP activity
- inhibition of RANKL-induced osteoclast differentiation as monitored by TRAP (listed as test compound): competitively inhibits the ability of RANKL to induce osteoclast differentiation; also recorded: dose-dependent
